According to the supplement of paper PMC10307832:

Legend:
Assay in all cases: relative viability (nuclei count vs DMSO), 5 days (fraction); higher = more cells survive
201T = test system: 201T
In short: (§1)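 Lung cancer cell lines in 1536-well plates got either a single drug or a fixed anchor-drug dose together with five library-drug doses (not always all listed) in √10 steps, by pin tool, on the day after seeding. Nuclei were counted after 5 days, and relative viability is the treated-to-vehicle ratio of nuclei counts. Values are medians of duplicate plates.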

COR-L 105 = test system: COR-L 105
In short: as §1

ChaGo-K-1 = test system: ChaGo-K-1
In short: as §1

EPLC-272H = test system: EPLC-272H
In short: as §1

H3255 = test system: H3255
In short: as §1

HCC-78 = test system: HCC-78
In short: as §1

HCC-827 = test system: HCC-827
In short: as §1

LC-2-ad = test system: LC-2-ad
In short: as §1

LCLC-97TM1 = test system: LCLC-97TM1
In short: as §1

NCI-H1666 = test system: NCI-H1666
In short: as §1

NCI-H1915 = test system: NCI-H1915
In short: as §1

NCI-H2087 = test system: NCI-H2087
In short: as §1

NCI-H2126 = test system: NCI-H2126
In short: as §1

NCI-H2347 = test system: NCI-H2347
In short: as §1

NCI-H23 = test system: NCI-H23
In short: as §1

NCI-H2405 = test system: NCI-H2405
In short: as §1

NCI-H322M = test system: NCI-H322M
In short: as §1

NCI-H520 = test system: NCI-H520
In short: as §1

NCI-H647 = test system: NCI-H647
In short: as §1

NCI-H650 = test system: NCI-H650
In short: as §1

NCI-H661 = test system: NCI-H661
In short: as §1

PC-14 = test system: PC-14
In short: as §1

RERF-LC-KJ = test system: RERF-LC-KJ
In short: as §1

Compound `CC1(C)CCC(c2ccc(Cl)cc2)=C(CN2CCN(c3ccc(C(=O)NS(=O)(=O)c4ccc(N[C@H](CCN5CCOCC5)CSc5ccccc5)c(S(=O)(=O)C(F)(F)F)c4)cc3)CC2)C1` [Navitoclax] + CC(=O)Nc1cccc(-n2c(=O)n(C3CC3)c(=O)c3c(Nc4ccc(I)cc4F)n(C)c(=O)c(C)c32)c1 [Trametinib] (partner 0.02 µM) has a relative viability (201T; first compound 0.005 µM) of 0.715, a relative viability (201T; first compound 0.01581 µM) of 0.784 and a relative viability (201T; first compound 0.05 µM) of 0.741. The relative viability (201T; first compound 0.1581 µM) was 0.7, the relative viability (201T; first compound 0.5 µM) was 0.726 and the relative viability (COR-L 105; first compound 0.005 µM) was 0.441. For the same compound, the relative viability (COR-L 105; first compound 0.01581 µM) was 0.476, the relative viability (COR-L 105; first compound 0.05 µM) was 0.428 and the relative viability (COR-L 105; first compound 0.1581 µM) was 0.447. For the same compound, the relative viability (COR-L 105; first compound 0.5 µM) was 0.379, the relative viability (ChaGo-K-1; first compound 0.005 µM) was 0.812 and the relative viability (ChaGo-K-1; first compound 0.01581 µM) was 0.859. The relative viability (ChaGo-K-1; first compound 0.05 µM) was 0.451, the relative viability (ChaGo-K-1; first compound 0.1581 µM) was 0.904 and the relative viability (ChaGo-K-1; first compound 0.5 µM) was 0.837. For the same compound, the relative viability (EPLC-272H; first compound 0.005 µM) was 0.239, the relative viability (EPLC-272H; first compound 0.05 µM) was 0.272 and the relative viability (EPLC-272H; first compound 0.1581 µM) was 0.298. The relative viability (EPLC-272H; first compound 0.5 µM) was 0.277, the relative viability (H3255; first compound 0.005 µM) was 0.529 and the relative viability (H3255; first compound 0.01581 µM) was 0.7. For the same compound, the relative viability (H3255; first compound 0.05 µM) was 0.612, the relative viability (H3255; first compound 0.1581 µM) was 0.59 and the relative viability (H3255; first compound 0.5 µM) was 0.582. For the same compound, the relative viability (HCC-78; first compound 0.005 µM) was 0.653, the relative viability (HCC-78; first compound 0.01581 µM) was 0.826 and the relative viability (HCC-78; first compound 0.05 µM) was 0.59. It also gave a relative viability (HCC-78; first compound 0.1581 µM) of 0.727, a relative viability (HCC-78; first compound 0.5 µM) of 0.727 and a relative viability (HCC-827; first compound 0.005 µM) of 0.528. It also gave a relative viability (HCC-827; first compound 0.01581 µM) of 0.567, a relative viability (HCC-827; first compound 0.05 µM) of 0.446 and a relative viability (HCC-827; first compound 0.1581 µM) of 0.514. For the same compound, the relative viability (HCC-827; first compound 0.5 µM) was 0.55, the relative viability (LC-2-ad; first compound 0.005 µM) was 0.861 and the relative viability (LC-2-ad; first compound 0.01581 µM) was 0.906. The relative viability (LC-2-ad; first compound 0.05 µM) was 0.813, the relative viability (LC-2-ad; first compound 0.1581 µM) was 0.902 and the relative viability (LC-2-ad; first compound 0.5 µM) was 0.823. The relative viability (LCLC-97TM1; first compound 0.005 µM) was 0.184, the relative viability (LCLC-97TM1; first compound 0.01581 µM) was 0.232 and the relative viability (LCLC-97TM1; first compound 0.05 µM) was 0.186. For the same compound, the relative viability (LCLC-97TM1; first compound 0.1581 µM) was 0.211, the relative viability (LCLC-97TM1; first compound 0.5 µM) was 0.189 and the relative viability (NCI-H1666; first compound 0.005 µM) was 0.933. The relative viability (NCI-H1666; first compound 0.01581 µM) was 0.937, the relative viability (NCI-H1666; first compound 0.05 µM) was 0.928 and the relative viability (NCI-H1666; first compound 0.1581 µM) was 0.903. It also gave a relative viability (NCI-H1666; first compound 0.5 µM) of 0.931, a relative viability (NCI-H1915; first compound 0.005 µM) of 0.287 and a relative viability (NCI-H1915; first compound 0.01581 µM) of 0.327. The relative viability (NCI-H1915; first compound 0.05 µM) was 0.297, the relative viability (NCI-H1915; first compound 0.1581 µM) was 0.314 and the relative viability (NCI-H1915; first compound 0.5 µM) was 0.331. The relative viability (NCI-H2087; first compound 0.005 µM) was 0.177, the relative viability (NCI-H2087; first compound 0.01581 µM) was 0.194 and the relative viability (NCI-H2087; first compound 0.1581 µM) was 0.145. It also gave a relative viability (NCI-H2087; first compound 0.5 µM) of 0.151, a relative viability (NCI-H2126; first compound 0.005 µM) of 0.554 and a relative viability (NCI-H2126; first compound 0.01581 µM) of 0.639. For the same compound, the relative viability (NCI-H2126; first compound 0.05 µM) was 0.638, the relative viability (NCI-H2126; first compound 0.1581 µM) was 0.524 and the relative viability (NCI-H2126; first compound 0.5 µM) was 0.561. For the same compound, the relative viability (NCI-H2347; first compound 0.005 µM) was 0.296, the relative viability (NCI-H2347; first compound 0.01581 µM) was 0.314 and the relative viability (NCI-H2347; first compound 0.05 µM) was 0.26. For the same compound, the relative viability (NCI-H2347; first compound 0.1581 µM) was 0.32, the relative viability (NCI-H2347; first compound 0.5 µM) was 0.259 and the relative viability (NCI-H23; first compound 0.005 µM) was 0.338. For the same compound, the relative viability (NCI-H23; first compound 0.01581 µM) was 0.436, the relative viability (NCI-H23; first compound 0.05 µM) was 0.443 and the relative viability (NCI-H23; first compound 0.1581 µM) was 0.357. The relative viability (NCI-H23; first compound 0.5 µM) was 0.412, the relative viability (NCI-H2405; first compound 0.005 µM) was 0.535 and the relative viability (NCI-H2405; first compound 0.01581 µM) was 0.75. For the same compound, the relative viability (NCI-H2405; first compound 0.05 µM) was 0.67, the relative viability (NCI-H2405; first compound 0.1581 µM) was 0.596 and the relative viability (NCI-H2405; first compound 0.5 µM) was 0.661. For the same compound, the relative viability (NCI-H322M; first compound 0.005 µM) was 0.538, the relative viability (NCI-H322M; first compound 0.01581 µM) was 0.533 and the relative viability (NCI-H322M; first compound 0.05 µM) was 0.453. The relative viability (NCI-H322M; first compound 0.1581 µM) was 0.484, the relative viability (NCI-H322M; first compound 0.5 µM) was 0.539 and the relative viability (NCI-H520; first compound 0.005 µM) was 0.673. The relative viability (NCI-H520; first compound 0.01581 µM) was 0.653, the relative viability (NCI-H520; first compound 0.05 µM) was 0.631 and the relative viability (NCI-H520; first compound 0.1581 µM) was 0.603. It also gave a relative viability (NCI-H520; first compound 0.5 µM) of 0.693, a relative viability (NCI-H647; first compound 0.005 µM) of 0.345 and a relative viability (NCI-H647; first compound 0.01581 µM) of 0.521. It also gave a relative viability (NCI-H647; first compound 0.05 µM) of 0.331, a relative viability (NCI-H647; first compound 0.1581 µM) of 0.534 and a relative viability (NCI-H647; first compound 0.5 µM) of 0.408. It also gave a relative viability (NCI-H650; first compound 0.005 µM) of 0.907, a relative viability (NCI-H650; first compound 0.01581 µM) of 1.2 and a relative viability (NCI-H650; first compound 0.05 µM) of 0.872. For the same compound, the relative viability (NCI-H650; first compound 0.1581 µM) was 1.09, the relative viability (NCI-H650; first compound 0.5 µM) was 0.878 and the relative viability (NCI-H661; first compound 0.005 µM) was 0.516. The relative viability (NCI-H661; first compound 0.01581 µM) was 0.702, the relative viability (NCI-H661; first compound 0.05 µM) was 0.551 and the relative viability (NCI-H661; first compound 0.1581 µM) was 0.533. The relative viability (NCI-H661; first compound 0.5 µM) was 0.538, the relative viability (PC-14; first compound 0.005 µM) was 0.804 and the relative viability (PC-14; first compound 0.01581 µM) was 1.21. It also gave a relative viability (PC-14; first compound 0.05 µM) of 0.808, a relative viability (PC-14; first compound 0.1581 µM) of 0.801 and a relative viability (PC-14; first compound 0.5 µM) of 0.695. It also gave a relative viability (RERF-LC-KJ; first compound 0.005 µM) of 0.823, a relative viability (RERF-LC-KJ; first compound 0.01581 µM) of 0.847 and a relative viability (RERF-LC-KJ; first compound 0.05 µM) of 0.969. For the same compound, the relative viability (RERF-LC-KJ; first compound 0.1581 µM) was 0.938 and the relative viability (RERF-LC-KJ; first compound 0.5 µM) was 0.985.
